Test results: patent publication US7709538B2 (Sagittarius Life Science Corp., priority 2004, dated 2010)
Several values for one entry are separate records, joined by “and”; a condition that tells them apart may be missing. Identical values can stand only once. Entries after “also recorded” stand apart in the source; their conditions may differ. Marks after values point to notes of the source that are not given here.

Experiments:
[1] = system: bFGF-induced angiogenesis in rat corneas; assay: Corneal angiogenesis, implanted hydron pellets; format: in vivo; conditions: pellets with bFGF 100 ng, alone or plus ST104P 500 ng, day 7
Procedure: FIG. 8. […] The asterisk represents the place of hydron pellet implantation. (B) The neovascularization in rat corneas after implantation bFGF hydron pellets or pellets containing bFGF and ST104P. The length (panel a) and area (panel b) of neovascularized vessels in rat corneas were measured after implantation for 3-7 days. Data are means±SEM (n=8 per group). *P<0.01.
(§1) All rats were handled in accordance with the Association for Research in Vision and Ophthalmology Resolution on the Use of Animals in Research. Male Sprague-Dawley rats (300-350 g, Animal Center, National Science Counsel, Taipei, Taiwan) were used in this study. All surgical procedures were performed using sterile techniques. The rats were placed under anesthesia with 3% isoflurane in an O2/room air mixture (1:1). Additional topical anesthesia (0.4% benoxinate hydrochloride, Ciba Vision Ltd., Hettlingen, Switzerland) was applied to the corneal surface. The eyes were exposed by grasping the temporal limboconjunctiva using a jeweler's forceps and the central-peripheral corneal intrastromal lamellar pocket (0.6×1.5×1 mm for depth×length×width) was dissected with a surgical blade (Paragon no. 11; Maersk Medical LTD, Sheffield, England). The pockets were extended 1.5 to 2 mm away from the limbus. The pellet was grasped by smooth forceps from the refrigerator (−20° C.) and immediately implanted into the corneal stromal pocket in each eye. Topical antibiotic ointment (0.3% gentamycin; Alcon Cusi, Spain) was applied to the corneal surface to reduce irritation and prevent infection.
Implanting Hydron Pellets
(§2) Biomicroscopic Examination
(§3) Examinations were made with a dissecting microscope and results were photographed on days 3, 5 and 7. Under anesthesia, the maximum vessel length and width of the neovascularization in rat eyes were measured and calibrated using a microscale (Nikon, Tokyo, Japan). The area of neovascularization of the cornea was determined from the dimensions of the triangular growth pattern of the vessels. Photographs of the corneal angiogenesis assay were obtained and digitized in a 640×480 pixel matrix, using a digital camera CoolPix 995 (Nikon, Tokyo, Japan). The operator was blinded to experimental design. Areas containing blood vessels were traced on the computer monitor and calculated with image analysis software (Scion Image 4.02; Scion, Maryland, USA) and reported in square millimeters with determinations. The biomicroscopic assessment was conducted by two independent observers.
(§4) To analyze the differences between groups, Mann-Whitney U test analysis with two-tailed probability was used and a P value of less than 0.05 was considered significant. Results are presented as means±SEM (standard error of the mean). For each experiment, surgery was performed on all animals in a standardized fashion, and animals were randomized to the different treatment and control groups.

BAEC [2] = conditions: incubation 6 h, bFGF 100 ng/ml
Procedure: (§5) FIG. 2. […] After trypsinization, endothelial cells were applied to top wells in Boyden chamber to initiated migration toward chemoattractant bFGF (100 ng/ml) in the bottom wells. The migrated cells on filter were stained and counted. Each point represents mean±SEM of triplicate experiments.
(§6) The compartments were separated by a polycarbonate filter (8-μm pore size; Nucleopore, Costar, Cambridge, Mass.) coated with 0.005% gelatin to allow cell adhesion. After incubation for 2-4 h in a humidified 5% CO2 atmosphere at 37° C., cells on the upper side of the filter were removed, and those that had migrated to the lower side were fixed in absolute ethanol, stained with 10% Giemsa solution (Merck, Germany), and counted as a mean±SD per filter under five different high power fields.

EA.hy926 = conditions: EA.hy926, incubation 6 h, bFGF 100 ng/ml
Procedure: as §5, §6

BAEC [3] = assay: Tube formation assay in Matrigel; format: cell-based, Bovine; conditions: ST104P 20-100 μg/ml
Procedure: FIG. 3. ST104P abolished the tube formation of endothelial cells. […] Endothelial cells were applied to Matrigel-coated plate in the absence or presence of ST104P. After 8 h, the tubular structures of BAEC cells were monitored and recorded under light microscopy. The pictures were taken at 400× magnification.
Matrigel (Becton Dickinson; Bedford, Mass.) was diluted with cold serum-free medium to 10 mg/ml. Two hundred μl of the diluted solution were added to each well in 24-well plate and allowed to form a gel at 37° C. for 30 min. […] Two hundred μl of the cell suspension (3×10^4 cells) were then subsequently added to each well and incubated for 6-8 h at 37° C. in 5% CO2. Under these conditions endothelial cells form delicate networks of tubes that are detectable within 2-3 h and are fully developed after 8-12 h.

EA.hy926 cells = assay: Tube formation assay in Matrigel; format: cell-based, Human; conditions: ST104P 20-100 μg/ml
[4] = system: secretion of MMP-2 by endothelial cells; assay: MMPs gelatin zymography of conditioned media of endothelial cells; format: cell-based; conditions: endothelial cells (BAEC, EA.hy926), even at dose as low as 10 μg/ml, 24 h
Procedure: (§7) Matrix Metalloproteinases (MMPs) Zymography
(§8) Secretion of MMPs by endothelial cells was assessed by 0.1% gelatin-SDS-PAGE zymography. Briefly, endothelial cells near 80% confluence were washed twice with serum-free media and treated with various doses of vasostatin for 24-48 h. Conditioned media were collected and assayed for protein concentration by Bradford assay. Aliquots of conditioned media were subjected to separation with 10% SDS-PAGE containing 0.1% type A gelatin (Sigma; St. Louis, Mo.). After electrophoresis, gel was washed twice with 2.5% Triton X-100, incubated in buffer containing 40 mM Tris-HCl, pH […], 0.01% sodium azide at 37° C. for 12-24 h, stained with 0.25% Coomassie Blue R-250 in 50% methanol and 10% acetic acid for 1 h, and destained with 10% acetic acid, 20% methanol. The gelatinolytic regions by MMPs were visualized as white bands in blue background.

[5] = system: secretion of MMP-9 by endothelial cells; assay: as above; format: cell-based; conditions: endothelial cells (BAEC, EA.hy926), even at dose as low as 10 μg/ml, 24 h
Procedure: as §7, §8

Lewis lung carcinoma = assay: Treatment of Lewis lung carcinoma in mice; format: in vivo
Procedure: FIG. 6. […] The subcutaneous dorsa of mice were implanted with Lewis lung carcinomas. […] Each point represents mean±SEM for ten mice.
FIG. 7. […] The subcutaneous dorsa of mice were implanted with Lewis lung carcinomas. […] Each point represents mean±SEM for ten mice.
Animal study was carried out in the animal facility of Kaohsiung Veterans General Hospital in accordance with institutional guidelines. Male C57BL/6J mice (6- to 8-week-old; Animal Center of National Cheng Kung University, Taiwan) were used. Mice were acclimated and caged in groups of four or less. All mice were fed with a diet of animal chow and water ad libitum. Animals were anesthetized in a methoxyflurane chamber prior to all procedures and were observed until fully recovered. Animals were sacrificed by a lethal dose of methoxyflurane.
Treatment of Lewis Lung Carcinoma
C57BL/6J mice were implanted with Lewis lung carcinomas cells using the techniques described previously (O'Reilly et al., Cell 88, 277-285, 1997). Briefly, the LL2 Lewis lung carcinoma cells were resuspended in PBS at the concentration of 2.5×10^6 cells per ml and injected into C57B16/J mice (n=20) with 0.1 ml of the cell suspension to induce tumor. Tumors were measured with a dial-caliper and volumes were determined using the formula width^2×length×0.52. […] In addition, the survival rate of mice in different groups was recorded and analyzed by Kaplan-Mier Survival analysis.

[6] = Tolerability in animals via various routes (data not shown); format: in vivo; conditions: oral or intravenous, intraperitoneal, and intratumor injection
[7] = system: BAEC, HUVEC, EA.hy926 cells, 3T3 cells, GH3 cells, C6 cells, HepG2 cells, SK-Hep-1 cells, MDCK cells; assay: Morphological analysis of endothelial and non-endothelial cells; format: cell-based; conditions: all types of cells tested; data not shown
Text: (§9) FIG. 1. […] The pictures were taken at 400× magnification. […] Each data represent mean±SD of quadruplicate experiments. Asterisks indicated statistic significance versus control (P<0.001).

different types of cells = assay: Cell proliferation assay, different types of cells; format: cell-based; conditions: dose-dependent, 10-500 μg/ml, 48 h
Text: as §9

[8] = system: bFGF-induced corneal angiogenesis; assay: Corneal angiogenesis, topical application of eye drops; format: in vivo
Procedure: FIG. 9. […] (A) Representative photographs of basic fibroblast growth factor (bFGF)-implanted corneas after topical application of control (phosphate buffered saline, PBS) eye drop (left panel) and ST104P-containing eye drop (50 μg/ml, middle panel; 100 μg/ml, right panel) for 7 days. The asterisk represents the place of hydron pellet implantation. […] Data represent mean±SEM (n=8 per group).
FIG. 10. Histological analysis of basic fibroblast growth factor (bFGF)-implanted rat cornea after ST104P eye drop treatment. After eye drop treatment for 7 days, the bFGF-implanted rat corneas were harvested and stained with hematoxylin and eosin (200×). […] Neocapillaries (arrowheads) are prominent in the corneal stroma.
as §1
Topical Application of ST104P
as §2, §3
After treatment, the rat corneas were dissected and fixed in […]. The […]-embedded tissues were sectioned in 5-μm slices, mounted on poly-L-lysine-coated slides and subjected to hematoxylin and eosin staining.
as §4

Water solubility = format: physicochemical
[9] = system: bFGF-induced angiogenesis in rat corneas; assay: Corneal angiogenesis, implanted hydron pellets; format: in vivo; conditions: for Area (mm^2) of neovascularization / Length (mm) of new vessels: day 7
[10] = system: neovascularization in chicken embryos (CAM); assay: Chorioallantoic membrane (CAM) assay
Procedure: The angiogenesis profiles on CAMs were recorded under dissection microscope.
Chorioallantoic Membrane (CAM) Assay
Briefly, fertilized White Leghorn chicken eggs were purchased from Taiwan Provincial Research Institute for Animal Health (Hsin-Chu, Taiwan) and incubated at 37° C. with 60% humidity. On day 3, a square window was opened in the shell, and 2 to 3 ml of albumen was removed to allow detachment of the developing CAM. The window was sealed with a glass, and the eggs were returned to the incubator. […] The CAMs were examined daily until day 10-12, when the angiogenic response peaks, and photographed in ovo with a stereomicroscope equipped with Zeiss MC63 camera system (Zeiss, Oberkochen, Germany). The experiments were carried out using 10 eggs per group.

[11] = ST104P 500 ng pellet without bFGF
[12] = ST104P 1000 ng pellet without bFGF

Substance: bFGF: Recombinant basic fibroblast growth factor, used as chemoattractant and as inducer of corneal angiogenesis in hydron pellets [reference compound]
- Area (mm^2) of neovascularization [1]: 1.42±0.28 mm^2
- Length (mm) of new vessels [1]: 1.36±0.4 mm and 1.36 ± 0.40 mm

Substance: tetrameric cyclic compound of 4,5-dihydroxynaphthalene-2, 7, disulfonic acid linked by methylene bridges [ST104P]
- IC50, migration toward chemoattractant bFGF (BAEC [2]): 100 µg/mL
- IC50, migration toward chemoattractant bFGF (EA.hy926): 100 µg/mL
- vessel-like (tube) structure in Matrigel (BAEC [3]): effectively abolished
- vessel-like (tube) structure in Matrigel (EA.hy926 cells): effectively abolished
- secretion of MMP-2 [4]: potently inhibited
- secretion of MMP-9 [5]: potently inhibited
- weight loss or adverse effects in treated mice (Lewis lung carcinoma; ST104P 100 μg injection): no evident weight loss or adverse effects
- decrease of tumor size versus saline-treated group (Lewis lung carcinoma; ST104P 100 μg injection, four times): ~40%
- average tumor size (Lewis lung carcinoma; ST104P 100 μg injection, four times, saline group 4876±670, P<0.05): 2620±320 mm^3
- survival of tumor-bearing mice (Lewis lung carcinoma; ST104P 100 μg, versus vehicle, Kaplan-Meier): significantly enhanced the survival rates; also recorded: survived significantly longer
- tolerability in animals [6]: well tolerated
- cytotoxicity by morphological analysis [7]: not very toxic
- proliferation in different types of cells (different types of cells): moderately inhibited the proliferation
- Area (mm^2) of neovascularization ([1]; listed as bFGF + ST104P): 0.12 ± 0.11* mm^2
- Length (mm) of new vessels ([1]; listed as bFGF + ST104P): 0.17 ± 0.06* mm
- Area (mm^2) of neovascularization ([1]; listed as bFGF plus ST104P): 0.12±0.11 mm^2
- Length (mm) of new vessels ([1]; listed as bFGF plus ST104P): 0.17±0.06 mm
- average vessel length ([8]; ST104P eye drop 100 μg/ml three times daily, day 7, PBS eye drop 1.36±0.4, P<0.01): 0.39±0.15 mm
- neovascularized area ([8]; ST104P eye drop 100 μg/ml three times daily, day 7, PBS eye drop 1.42±0.28, P<0.01): 0.28±0.19 mm^2
- effect on bFGF-induced cornea angiogenesis ([8]; ST104P eye drop 10-20 μg/ml): did not elicit inhibitory effect
- neovascularization by histological analysis ([8]; ST104P eye drops 50 and 100 μg/ml, 7 days, hematoxylin and eosin): no significant neovascularization
- toxicity to the cornea / other eye cells by histological analysis ([8]; ST104P eye drops, 7 days): appears normal histologically without apparent adverse effects; also recorded: without overt cytotoxicity
- water solubility (Water solubility): excellent water solubility
- Area (mm^2) of neovascularization [9, 11]: 0 mm^2
- Length (mm) of new vessels [9, 11]: 0 mm
- Area (mm^2) of neovascularization [9, 12]: 0 mm^2
- Length (mm) of new vessels [9, 12]: 0 mm
- induction of neovascularization by pellets without bFGF ([9]; ST104P pellets alone in rat corneas): did not induce neovascularization
- inhibition of angiogenesis in CAM ([10]; 50 μg per CAM, 8-day old chick embryos): 50%
- mortality of chick embryos ([10]; 200 μg per CAM, 9 out of 10 died): 90%
